Laboratory results taken from patent US20230192617A1, “AZABICYCLIC(THIO)AMIDES AS FUNGICIDAL COMPOUNDS” (Bayer CropScience Aktiengesellschaft, priority 2020, published 2023).
Values belong to the compound of their own block, whether it stands above or below them.

Key:
[1] = Measurement of Log P values by HPLC on reversed phase columns (EEC directive 79/831 Annex V.A8); assay type: physicochemical; conditions: method [a]: LC-UV, acidic range, 0.1% formic acid in water and acetonitrile as eluent; for chromatographic logP: reversed phase HPLC column
Method in brief: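 Log P derived from retention on reversed-phase columns (EEC directive 79/831 Annex V.A8), LC-UV, acetonitrile gradient 10% to 95% against water containing 0.1% formic acid, 0.001 M ammonium acetate, or 0.1% phosphoric acid; several values per method separated by "+".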

Alternaria brassicae = assay: In vivo preventive test on Alternaria brassicae (leaf spot on radish or cabbage); conditions: 500 ppm of active ingredient, preventive spray on radish or cabbage, evaluated 3 to 4 days after inoculation, read-out: efficacy
Protocol: B-1. In Vivo Preventive Test on Alternaria brassicae (Leaf Spot on Radish or Cabbage) [table] The active ingredients were made soluble and homogenized in a mixture of Dimethyl sulfoxide/Acetone/Tween® 80 and then diluted in water to the desired concentration. The young plants of radish or cabbage were treated by spraying the active ingredient prepared as described above. Control plants were treated only with an aqueous solution of Acetone/Dimethyl sulfoxide/Tween® 80. After 24 hours, the plants were contaminated by spraying the leaves with an aqueous suspension of Alternaria brassicae spores. The contaminated radish or cabbage plants were incubated for 3 to 4 days at 20° C. and at 100% relative humidity.

Botrytis cinerea [2] = assay: In vivo preventive test on Botrytis cinerea (grey mould); conditions: 500 ppm of active ingredient, preventive spray on gherkin or cabbage, evaluated 4 to 5 days after inoculation, read-out: efficacy
Protocol: (§1) B-2. In Vivo Preventive Test on Botrytis cinerea (Grey Mould) [table] The active ingredients were made soluble and homogenized in a mixture of Dimethyl sulfoxide/Acetone/Tween® 80 and then diluted in water to the desired concentration. The young plants of gherkin or cabbage were treated by spraying the active ingredient prepared as described above. Control plants were treated only with an aqueous solution of Acetone/Dimethyl sulfoxide/Tween® 80. After 24 hours, the plants were contaminated by spraying the leaves with an aqueous suspension of Botrytis cinerea spores. The contaminated gherkin plants were incubated for 4 to 5 days at 17° C. and at 90% relative humidity. The contaminated cabbage plants were incubated for 4 to 5 days at 20° C. and at 100% relative humidity.

[3] = tested on: Colletotrichum lindemuthianum; assay: B-8. Colletotrichum lindemuthianum in vitro cell test; assay type: cell-based; conditions: 144 h, 20 ppm of active ingredient, 6 days incubation, liquid culture, absorbance, read-out: efficacy (inhibition of fungal growth)
Method in brief: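 Liquid-culture germination/growth test: compounds in ≤1% final DMSO were added to spore-containing medium. Fungal growth was quantified spectrophotometrically after 6 days of incubation and expressed as inhibition versus untreated controls.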

Pyrenophora teres = assay: B-10. Pyrenophora teres in vitro cell test; assay type: cell-based; conditions: 144 h, 20 ppm of active ingredient, 6 days incubation, liquid culture, absorbance, read-out: efficacy (inhibition of fungal growth)
Protocol: (§2) B-10. Pyrenophora teres In Vitro Cell Test [table] Fungicides were solubilized in DMSO and the solution used to prepare the required range of concentrations. The final concentration of DMSO used in the assay was ≤1%. A spore suspension of P. teres was prepared and diluted to the desired spore density. Fungicides were evaluated for their ability to inhibit spore germination and mycelium growth in liquid culture assay. The compounds were added in the desired concentration to the culture medium with spores. After 6 days incubation, fungi-toxicity of compounds was determined by spectrometric measurement of mycelium growth. Inhibition of fungal growth was determined by comparing the absorbance values in wells containing the fungicides with the absorbance in control wells without fungicides.

Botrytis cinerea [4] = assay: B-11. Botrytis cinerea in vitro cell test; assay type: cell-based; conditions: 144 h, 20 ppm of active ingredient, 6 days incubation, liquid culture, absorbance, read-out: efficacy (inhibition of fungal growth)
Protocol: as §2, with “B-11. Botrytis cinerea” for “B-10. Pyrenophora teres”, “B. cinerea” for “P. teres”

Alternaria alternata = Alternaria alternata in vitro cell test; assay type: cell-based; conditions: 120 h, 20 ppm of active ingredient, liquid culture, 5 days incubation, spectrometric measurement of mycelium growth, read-out: efficacy (inhibition of fungal growth)
Protocol: as §2, with “B-6. Alternaria alternata” for “B-10. Pyrenophora teres”, “A. alternata” for “P. teres”, “5” for “6”

Sphaerotheca fuliginea = assay: In vivo preventive test on Sphaerotheca fuliginea (powdery mildew on cucurbits); conditions: Podosphaera fuliginea, 192 h; 500 ppm of active ingredient; preventive spray on gherkin; evaluated 8 days after inoculation; read-out: efficacy
Protocol: as §1, with “B-4. in vivo preventive test” for “B-2. In Vivo Preventive Test”, “Sphaerotheca fuliginea (powdery mildew on cucurbits)” for “Botrytis cinerea (Grey Mould)”, “gherkin” for “gherkin or cabbage”, “Sphaerotheca fuliginea” for “Botrytis cinerea”, “8” for “4 to 5 days at 17° C. and at 90% relative humidity. The contaminated cabbage plants were incubated for 4 to 5”, “70-80%” for “100%”

chromatographic logP [1]: 3.63
SMILES: CC(C)Oc1ccc(CCNC(=O)c2c(Oc3cccc(C(F)(F)F)c3)nnc3ccccc23)cn1 [I-087]
pest or weed control at 500 ppm (Alternaria brassicae): 80 to 89%
inhibition at 20 ppm (Alternaria alternata): 90 to 100%
inhibition at 20 ppm [3]: 90 to 100%
inhibition at 20 ppm (Pyrenophora teres): 90 to 100%
inhibition at 20 ppm (Botrytis cinerea [4]): 90 to 100%

chromatographic logP [1]: 3.53
SMILES: O=C(NCCc1cccs1)c1c(Oc2cccc(C(F)(F)F)c2)nnc2ccccc12 [I-237]
pest or weed control at 500 ppm (Alternaria brassicae): 90 to 100%
pest or weed control at 500 ppm (Botrytis cinerea [2]): 70 to 79%
inhibition at 20 ppm (Alternaria alternata): 90 to 100%
inhibition at 20 ppm [3]: 80 to 89%
inhibition at 20 ppm (Pyrenophora teres): 90 to 100%
inhibition at 20 ppm (Botrytis cinerea [4]): 90 to 100%

chromatographic logP [1]: 3
SMILES: O=C(NCCn1cc(Cl)cn1)c1c(Oc2cccc(C(F)(F)F)c2)nnc2ccccc12 [I-244]
pest or weed control at 500 ppm (Alternaria brassicae): 90 to 100%
pest or weed control at 500 ppm (Botrytis cinerea [2]): 80 to 89%
inhibition at 20 ppm (Alternaria alternata): 90 to 100%
inhibition at 20 ppm [3]: 90 to 100%
inhibition at 20 ppm (Pyrenophora teres): 90 to 100%
inhibition at 20 ppm (Botrytis cinerea [4]): 90 to 100%

chromatographic logP [1]: 3.94
SMILES: O=C(NCCOc1ccc(Cl)cc1)c1c(Oc2cccc(C(F)(F)F)c2)nnc2ccccc12 [I-085]
pest or weed control at 500 ppm (Alternaria brassicae): 90 to 100%
inhibition at 20 ppm (Alternaria alternata): 90 to 100%
inhibition at 20 ppm [3]: 80 to 89%
inhibition at 20 ppm (Pyrenophora teres): 90 to 100%
inhibition at 20 ppm (Botrytis cinerea [4]): 90 to 100%

chromatographic logP [1]: 4.42
SMILES: C[C@@H]1CC[C@H](NC(=O)c2c(Oc3cccc(C(F)(F)F)c3)nnc3ccccc23)c2ccccc21 (mixture of isomers) [I-079]
pest or weed control at 500 ppm (Alternaria brassicae): 90 to 100%
pest or weed control at 500 ppm (Botrytis cinerea [2]): 90 to 100%
inhibition at 20 ppm [3]: 90 to 100%
inhibition at 20 ppm (Pyrenophora teres): 90 to 100%
inhibition at 20 ppm (Botrytis cinerea [4]): 90 to 100%

chromatographic logP [1]: 4.32
SMILES: COc1ccc(CCN(C(C)=O)C(=O)c2c(Oc3cccc(C(F)(F)F)c3)nnc3ccccc23)cc1 [I-090]
pest or weed control at 500 ppm (Alternaria brassicae): 90 to 100%
pest or weed control at 500 ppm (Botrytis cinerea [2]): 90 to 100%
inhibition at 20 ppm [3]: 80 to 89%
inhibition at 20 ppm (Pyrenophora teres): 90 to 100%
inhibition at 20 ppm (Botrytis cinerea [4]): 90 to 100%

More lines, now with the values behind:

SMILES: COc1ccc2c(c1)[C@@H](NC(=O)c1c(Oc3cccc(C(F)(F)F)c3)nnc3ccccc13)[C@@H](OC)CC2 (mixture of isomers) [I-180]
LogP [1]: 4.02
chromatographic logP [1]: 3.78
pest or weed control at 500 ppm (Alternaria brassicae): 90 to 100%
pest or weed control at 500 ppm (Botrytis cinerea [2]): 80 to 89%
inhibition at 20 ppm [3]: 90 to 100%
inhibition at 20 ppm (Pyrenophora teres): 90 to 100%
inhibition at 20 ppm (Botrytis cinerea [4]): 90 to 100%

SMILES: Cn1cc(-c2ccc(C(F)(F)CNC(=O)c3c(Oc4cccc(C(F)(F)F)c4)nnc4ccccc34)c(Cl)c2)cn1 [I-065]
chromatographic logP [1]: 3.71
pest or weed control at 500 ppm (Alternaria brassicae): 90 to 100%
pest or weed control at 500 ppm (Botrytis cinerea [2]): 90 to 100%
inhibition at 20 ppm (Alternaria alternata): 70 to 79%
inhibition at 20 ppm (Pyrenophora teres): 90 to 100%
inhibition at 20 ppm (Botrytis cinerea [4]): 90 to 100%

SMILES: C[C@H](NC(=O)c1c(Oc2cncc(C(F)(F)F)c2)nnc2ccccc12)c1cccc(C(F)(F)F)c1 (racemic) [I-028]
chromatographic logP [1]: 3.57
pest or weed control at 500 ppm (Botrytis cinerea [2]): 90 to 100%
pest or weed control at 500 ppm (Sphaerotheca fuliginea): 90 to 100%
inhibition at 20 ppm [3]: 80 to 89%

SMILES: Cc1ccc(C(F)(F)CNC(=O)c2c(Oc3cccc(C(F)(F)F)c3)cnc3ccccc23)c(C)c1 [I-039, N-[2-(2,4-dimethylphenyl)-2,2-difluoro-ethyl]-3-[3-(trifluoro-methyl)phenoxy]quinoline-4-carboxamide]
chromatographic logP [1]: 4.46
pest or weed control at 500 ppm (Botrytis cinerea [2]): 90 to 100%
pest or weed control at 500 ppm (Sphaerotheca fuliginea): 90 to 100%
inhibition at 20 ppm (Alternaria alternata): 90 to 100%
inhibition at 20 ppm [3]: 90 to 100%
